Results published in PubChem BioAssay (NCI).
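In this assay, cells in 96-well plates receive the compound at five concentrations for 48 hours. Endpoints are linearly interpolated between the surrounding concentrations. Definition used: TGI = concentration required for complete inhibition of growth.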

Columns and labels:
Experiment in all cases: NCI-60 cell line screen, 48 h
[1] = tested on: EKVX NSCLC
[2] = tested on: NCI-H226 lung
[3] = tested on: UO-31 renal
[4] = tested on: SW-620 colon
[5] = tested on: M14 melanoma
[6] = tested on: SR leukemia
[7] = tested on: HL-60(TB) leukemia
[8] = tested on: NCI-H460 lung
[9] = tested on: SF-539 CNS
[10] = tested on: HOP-62 NSCLC
[11] = tested on: ACHN renal
[12] = tested on: SNB-19 CNS
[13] = tested on: MALME-3M melanoma
[14] = tested on: CCRF-CEM leukemia
[15] = tested on: U251 CNS
[16] = tested on: IGROV1 ovarian
[17] = tested on: MDA-MB-435
[18] = tested on: A498 renal
[19] = tested on: HOP-92 NSCLC
[20] = tested on: HCT-15 colon
[21] = tested on: 786-0 renal
[22] = tested on: MDA-MB-231 breast
[23] = tested on: HCC-2998 colon
[24] = tested on: MDA-N
[25] = tested on: MCF7 breast
[26] = tested on: SK-MEL-5 melanoma
[27] = tested on: HT29 colon
[28] = tested on: A549 NSCLC
[29] = tested on: SN12C renal
[30] = tested on: BT-549 breast
[31] = tested on: RPMI-8226 leukemia
[32] = tested on: RXF 393 renal
[33] = tested on: K-562 leukemia
[34] = tested on: MOLT-4 leukemia
[35] = tested on: OVCAR-4 ovarian
[36] = tested on: COLO 205 colon
[37] = tested on: SF-295 CNS
[38] = tested on: DU-145 prostate
[39] = tested on: OVCAR-8 ovarian
[40] = tested on: NCI-H23 lung
[41] = tested on: SF-268 CNS
[42] = tested on: UACC-62 melanoma
[43] = tested on: TK-10 renal
[44] = tested on: KM12 colon
[45] = tested on: T-47D breast
[46] = tested on: NCI/ADR-RES ovarian
[47] = tested on: HCT-116 colon
[48] = tested on: PC-3 prostate
[49] = tested on: HS 578T breast
[50] = tested on: UACC-257 melanoma
[51] = tested on: SK-MEL-28 melanoma
[52] = tested on: CAKI-1 renal
[53] = tested on: OVCAR-5 ovarian
[54] = tested on: OVCAR-3 ovarian
[55] = tested on: SK-OV-3 ovarian
[56] = tested on: SK-MEL-2 melanoma
[57] = tested on: SNB-75 CNS

Measured: TGI

NNc1nnc(-c2nnc(NN)o2)o1
> 10 µM: [1] | [2] | [3] | [4] | [5] | [6] | [7] | [8] | [9] | [10] | [11] | [12] | [13] | [14] | [15] | [16] | [17] | [18] | [19] | [20] | [21] | [22] | [23] | [24] | [25] | [26] | [27] | [28] | [29] | [30] | [31] | [32] | [33] | [34] | [35] | [36] | [37] | [38] | [39] | [40] | [41] | [42] | [43] | [44] | [45] | [46] | [47] | [48] | [49] | [50] | [51] | [52] | [53] | [54]

Cn1c(=O)n2n(c1=O)C(C)(C13CC4CC(CC(C4)C1)C3)C13CC4CC(CC1C4)CC23 (stereo not given)
> 100 µM: [1] | [2] | [3] | [4] | [5] | [6] | [7] | [8] | [9] | [10] | [11] | [12] | [55] | [14] | [15] | [16] | [17] | [18] | [19] | [20] | [22] | [56] | [24] | [25] | [26] | [27] | [28] | [29] | [30] | [31] | [33] | [34] | [36] | [37] | [57] | [38] | [39] | [40] | [41] | [42] | [43] | [44] | [45] | [46] | [48] | [49] | [50] | [51] | [52] | [53] | [54]
